Measurements reported in the supplement of paper PMC5908809.

Assays:
NK-YS (IL-2 2.5 ng/mL) [1] = test: drug sensitivity score (DSS) (DSS units); higher = more sensitive; extreme values may be limits of the assay; conditions: 72 h
[2] = system: normal primary NK cells, pool 2 (3 donors) (IL-2 2.5 ng/mL); test: as above; conditions: 72 h
NK-92 (IL-2 2.5 ng/mL) [3] = test: as above; conditions: 72 h
KAI3 (IL-2 2.5 ng/mL) [4] = test: as above; conditions: 72 h
YT (IL-2 2.5 ng/mL) [5] = test: as above; conditions: 72 h
[6] = system: normal primary NK cells, pool 1 (3 donors), resting (IL-2 0 ng/mL); test: as above; conditions: 72 h
NKL (IL-2 2.5 ng/mL) [7] = test: as above; conditions: 72 h
[8] = system: normal primary NK cells, pool 1 (3 donors) (IL-2 2.5 ng/mL); test: as above; conditions: 72 h
[9] = system: normal primary NK cells, pool 3 (3 donors) (IL-2 2.5 ng/mL); test: as above; conditions: 72 h
IMC-1 (IL-2 20 ng/mL) [10] = test: as above; conditions: 72 h
SNK-6 (IL-2 2.5 ng/mL) [11] = test: as above; conditions: 72 h
KHYG-1 (IL-2 2.5 ng/mL) [12] = test: as above; conditions: 72 h
DERL-7 (IL-2 2.5 ng/mL) [13] = test: as above; conditions: 72 h
[14] = system: normal NK cells expanded with K562-aAPC; test: as above; conditions: 72 h; IL-2 2.5 ng/mL
Protocol: (§1)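 Drug sensitivity and resistance testing on K562-aAPC-expanded normal NK cells: 5 concentrations (10-fold steps over a 10,000-fold range), 72 h at 37 °C, viability by CellTiter-Glo normalised to DMSO and benzethonium chloride controls; DSS from the fitted curve.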

NK-YS (IL-2 2.5 ng/mL) [15] = test: percent inhibition of viability; higher = more inhibition; conditions: 72 h
[16] = system: normal primary NK cells, pool 2 (3 donors) (IL-2 2.5 ng/mL); test: as above; conditions: 72 h
NK-92 (IL-2 2.5 ng/mL) [17] = test: as above; conditions: 72 h
KAI3 (IL-2 2.5 ng/mL) [18] = test: as above; conditions: 72 h
YT (IL-2 2.5 ng/mL) [19] = test: as above; conditions: 72 h
[20] = system: normal primary NK cells, pool 1 (3 donors), resting (IL-2 0 ng/mL); test: as above; conditions: 72 h
NKL (IL-2 2.5 ng/mL) [21] = test: as above; conditions: 72 h
[22] = system: normal primary NK cells, pool 1 (3 donors) (IL-2 2.5 ng/mL); test: as above; conditions: 72 h
[23] = system: normal primary NK cells, pool 3 (3 donors) (IL-2 2.5 ng/mL); test: as above; conditions: 72 h
IMC-1 (IL-2 20 ng/mL) [24] = test: as above; conditions: 72 h
SNK-6 (IL-2 2.5 ng/mL) [25] = test: as above; conditions: 72 h
KHYG-1 (IL-2 2.5 ng/mL) [26] = test: as above; conditions: 72 h
DERL-7 (IL-2 2.5 ng/mL) [27] = test: as above; conditions: 72 h
[28] = system: normal NK cells expanded with K562-aAPC; test: as above; conditions: 72 h, IL-2 2.5 ng/mL
Protocol: as §1

CC(C)C(=O)Nc1ccc([N+](=O)[O-])c(C(F)(F)F)c1 [Flutamide] (max concentration tested 10000 nM)
Conditions | drug sensitivity score
DERL-7 (IL-2 2.5 ng/mL) [13] | 0
IMC-1 (IL-2 20 ng/mL) [10] | 0.02
KAI3 (IL-2 2.5 ng/mL) [4] | 0
KHYG-1 (IL-2 2.5 ng/mL) [12] | 0
NK-92 (IL-2 2.5 ng/mL) [3] | 2.07
NK-YS (IL-2 2.5 ng/mL) [1] | 0
NKL (IL-2 2.5 ng/mL) [7] | 0
SNK-6 (IL-2 2.5 ng/mL) [11] | 0
YT (IL-2 2.5 ng/mL) [5] | 1.25
[2] | 0
[6] | 0
[8] | 0
[9] | 0
[14] | 0

percent inhibition of viability [%]
Conditions | 1 nM | 10 nM | 100 nM | 1000 nM | 10000 nM
DERL-7 (IL-2 2.5 ng/mL) [27] | 0.26 | 11.3 | -2.83 | 6.87 | 2.11
IMC-1 (IL-2 20 ng/mL) [24] | -0.8 | -1.46 | -1.68 | -2.71 | 12.2
KAI3 (IL-2 2.5 ng/mL) [18] | -0.84 | -1.39 | -3.89 | -2.15 | -17.5
KHYG-1 (IL-2 2.5 ng/mL) [26] | -7.32 | -1.75 | -9.49 | -4.37 | -1.22
NK-92 (IL-2 2.5 ng/mL) [17] | -9.52 | -2.4 | -7.94 | 12.1 | 22.5
NK-YS (IL-2 2.5 ng/mL) [15] | -0.08 | -3.58 | -2.41 | -5.97 | 2.23
NKL (IL-2 2.5 ng/mL) [21] | -6.29 | 8.8 | -0.67 | 5.38 | -13.1
SNK-6 (IL-2 2.5 ng/mL) [25] | 21.7 | 46.8 | -5.11 | 31.3 | 24.2
YT (IL-2 2.5 ng/mL) [19] | -7.4 | 6 | -4.1 | 6.56 | 19.1
[16] | 7.09 | -4.46 | -3.61 | -2.09 | 6.81
[20] | -8.17 | -16.6 | 6.26 | -12.5 | 8.25
[22] | -3.89 | -10.2 | -4.34 | -7.61 | -4.01
[23] | -0.96 | 0.66 | 3.21 | -0.91 | 1.69
[28] | -8.49 | -7.43 | -8.84 | -8.3 | -13.9
